TGI and GI50 data for eleven compounds are collected here from PubChem BioAssay (NCI).

Test systems include BT-549 breast; CAKI-1 renal; CCRF-CEM leukemia; HCC-2998 colon; HCT-116 colon; NCI-H23 lung; RPMI-8226 leukemia; SNB-19 CNS; UO-31 renal; UACC-62 melanoma.
Holding throughout (assay): growth of human tumour cells (NCI), 48 h

The structures appear in SMILES notation.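 Step 1: Grow cells in 96-well plates. Step 2: Expose to compound for 48 hours at 5 concentrations. Step 3: Interpolate endpoints linearly; if unreached, use highest concentration. At the GI50, growth is halved. TGI is the concentration that stops growth completely.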 A value given as a limit tells only on which side of the number the result lay.

Turning to `NP1(Oc2ccc(F)cc2)=NP(N)(Oc2ccc(F)cc2)=NP(Oc2ccc(F)cc2)(Oc2ccc(F)cc2)=N1` (stereo not drawn), the TGI with BT-549 breast came out at 7.44 µM; in the assay with CAKI-1 renal, 21.8 µM; with CCRF-CEM leukemia it was 18.9 µM; in the assay with HCC-2998 colon, 8.4 µM; with HCT-116 colon, 15.7 µM; in the assay on NCI-H23 lung, 23.9 µM. In addition, the TGI with RPMI-8226 leukemia came to 18.3 µM; in the assay with SNB-19 CNS it was 22.8 µM; in the assay with UO-31 renal it was 14.2 µM.
Take `CC1=C(C(=S)Nc2ccc(Cl)c(C(=O)OC(C)C)c2)SCCO1`: the TGI came to 37.8 µM with BT-549 breast; 48.5 µM in the assay with CAKI-1 renal; 44 µM with CCRF-CEM leukemia; 31.2 µM in the assay on HCC-2998 colon; 28.6 µM in the assay on HCT-116 colon; 62.2 µM in the assay on NCI-H23 lung. The TGI was 63.9 µM in the assay with RPMI-8226 leukemia, 44.5 µM in the assay with SNB-19 CNS, 32.6 µM in the assay with UACC-62 melanoma and 32.8 µM in the assay with UO-31 renal.
With `O=C(O)CCCCCNCc1cc2cc3c(cc2c2cc(OCc4ccccc4)ccc12)OCO3`, the GI50 with BT-549 breast was 6.68 µM; in the assay with CAKI-1 renal, 3170 nM; with HCC-2998 colon it was 1710 nM; with HCT-116 colon, 1580 nM; in the assay with SNB-19 CNS, 4.05 µM; in the assay on UACC-62 melanoma, 1800 nM. In addition, in the assay with UO-31 renal, the GI50 was 4.01 µM. For the same compound, the TGI with BT-549 breast was 24.1 µM; with CAKI-1 renal, 12 µM; with HCC-2998 colon, 3.37 µM; with HCT-116 colon it was 3.48 µM; with SNB-19 CNS it was 20.7 µM; in the assay on UACC-62 melanoma, 3.44 µM. The same compound displayed a TGI with UO-31 renal of 13.9 µM.
On to `COc1ccc(/C=C\c2cc(OC)c(OC)c(OC)c2)cc1NC(=O)/C=C/c1cc(OC)c(OC)c(OC)c1`, for which the GI50 is 7.96 µM in the assay with BT-549 breast; 2940 nM in the assay with CAKI-1 renal; 4.16 µM with CCRF-CEM leukemia; 3730 nM in the assay with HCC-2998 colon; 3830 nM in the assay with HCT-116 colon; 6.96 µM in the assay with NCI-H23 lung. Also, the GI50 is 2900 nM with RPMI-8226 leukemia, 5.64 µM with SNB-19 CNS, 2800 nM in the assay with UACC-62 melanoma and 2.64 µM in the assay with UO-31 renal. For the same compound, the TGI in the assay on BT-549 breast is 77.4 µM; in the assay with CAKI-1 renal, above 100 µM; with CCRF-CEM leukemia, above 100 µM; in the assay with HCC-2998 colon, above 100 µM; in the assay on HCT-116 colon it was above 100 µM; with NCI-H23 lung it was above 100 µM. The TGI in the assay with RPMI-8226 leukemia, in the assay with SNB-19 CNS, in the assay with UACC-62 melanoma and in the assay on UO-31 renal was above 100 µM throughout.
As for `O=C1c2ccccc2C(=O)c2c1ccc1c3ccccc3n(-c3ccccc3)c21`, the TGI in the assay on BT-549 breast was found to be 51.3 µM; in the assay on CAKI-1 renal, 35.1 µM; in the assay on CCRF-CEM leukemia it was 14.5 µM; in the assay on HCC-2998 colon, 72.6 µM; in the assay with HCT-116 colon, 47.5 µM; with NCI-H23 lung, 34 µM. Besides, the TGI in the assay on RPMI-8226 leukemia was 25.8 µM; with SNB-19 CNS, above 100 µM; in the assay on UACC-62 melanoma, 24.1 µM; in the assay on UO-31 renal it was 55.1 µM.
As to `COC(=O)[C@]12CC[C@@H](C)[C@H](C)[C@@H]1C1=CC[C@@H]3[C@@]4(C)C[C@@H](OC(C)=O)[C@H](OC(C)=O)[C@@](C)(COC(C)=O)[C@@H]4[C@H](O)C[C@@]3(C)[C@]1(C)CC2`, the GI50 in the assay on BT-549 breast was 1.4 µM; in the assay on CAKI-1 renal it was 930 nM; in the assay on CCRF-CEM leukemia, 1.96 µM; with HCC-2998 colon it was 2810 nM; with HCT-116 colon, 423 nM; in the assay on NCI-H23 lung it was 2.25 µM. Moreover, the GI50 in the assay with RPMI-8226 leukemia was 1040 nM; in the assay on SNB-19 CNS it was 3.54 µM. In addition, the TGI was 81.4 µM in the assay on BT-549 breast; above 100 µM in the assay with CAKI-1 renal; above 100 µM in the assay on CCRF-CEM leukemia; above 100 µM with HCC-2998 colon; above 100 µM with HCT-116 colon; above 100 µM in the assay with NCI-H23 lung. For the same compound, the TGI with RPMI-8226 leukemia and in the assay with SNB-19 CNS was above 100 µM throughout.
As for `COc1cc2c(c3oc4c(O)cccc4c(=O)c13)CC(C(C)(O)CCl)O2` (stereo not drawn), the TGI in the assay on BT-549 breast came to 12.5 µM; with CAKI-1 renal, 7.68 µM; in the assay with HCC-2998 colon, 8.35 µM; in the assay with HCT-116 colon, 2.53 µM; in the assay with NCI-H23 lung it was 6.14 µM; with RPMI-8226 leukemia, 0.655 µM. The TGI with SNB-19 CNS was found to be 20.9 µM; with UACC-62 melanoma, 2.3 µM; in the assay on UO-31 renal it was 4.9 µM.
In the case of `COc1ccccc1NC(=O)c1sc2ncn(CCOc3ccccc3)c(=O)c2c1C`, the GI50 in the assay with BT-549 breast was 26.7 µM; with CAKI-1 renal it was 2420 nM; with HCT-116 colon, 1990 nM; in the assay on NCI-H23 lung, 4.93 µM; with RPMI-8226 leukemia, 9200 nM; with SNB-19 CNS it was above 50 µM. The GI50 with UACC-62 melanoma is 2040 nM; in the assay on UO-31 renal it was 12.5 µM. In addition, the TGI in the assay with BT-549 breast, with CAKI-1 renal, with HCT-116 colon, in the assay with NCI-H23 lung, in the assay on RPMI-8226 leukemia and in the assay on SNB-19 CNS was above 50 µM in each case. Moreover, the TGI in the assay on UACC-62 melanoma and in the assay on UO-31 renal was above 50 µM each time.
Regarding `CC1=C(\C=C/C(C)=C/C=C/C(C)=C/C=C/C=C(C)\C=C\C=C(C)/C=C/C2=C(C)CCCC2(C)C)C(C)(C)CCC1`, the TGI with BT-549 breast is above 100 µM; in the assay with CCRF-CEM leukemia, above 100 µM; with HCC-2998 colon, above 100 µM; in the assay with HCT-116 colon it was 71.9 µM; in the assay with NCI-H23 lung, above 100 µM; in the assay on SNB-19 CNS it was above 100 µM. For the same compound, the TGI in the assay on UACC-62 melanoma and with UO-31 renal was above 100 µM in each case.
For the compound `CN(N=O)c1ccc(/C=C/c2ccnc3ccccc23)cc1`, the TGI in the assay with BT-549 breast, in the assay on CAKI-1 renal, with CCRF-CEM leukemia, with HCT-116 colon, with NCI-H23 lung and with SNB-19 CNS was above 100 µM throughout. Moreover, the TGI in the assay with UACC-62 melanoma and in the assay with UO-31 renal was above 100 µM in each case.
For the compound `COc1ccc2c(Cl)cc(NC(=S)Nc3ccccc3)nc2c1`, the TGI with BT-549 breast was above 100 µM; in the assay on CAKI-1 renal it was above 100 µM; with CCRF-CEM leukemia, 90.9 µM; in the assay on HCT-116 colon it was 49.1 µM; with NCI-H23 lung, 73.7 µM; in the assay with RPMI-8226 leukemia, 59.9 µM. Also, the TGI with SNB-19 CNS was 46.5 µM; in the assay with UACC-62 melanoma it was 46.4 µM.
